Experimental data published in patent US7320679B2, “Therapeutic use of growth factor, and delivery device, especially for the treatment of intimal hyperplasia” (Ark Therapeutics, Ltd., priority 1996, dated 2008).
Several values for one entry are separate records, joined by “and”; a condition that tells them apart may be missing. Identical values can stand only once. Entries after “also recorded” stand apart in the source; their conditions may differ.

Columns and labels:
NO production in HUVEC = test: Nitrite (NO) production in HUVEC, capillary detection method; type: cell-based, human
Procedure: Nitrite production was measured using capillary detection method (Leone et al, in Methods in Nitric Oxide Research, Feelisch and Stanler, eds. John Wiley & Sons, New York (1996) 499-508).

[1] = test system: carotid arteries (intimal thickening); test: Collar-induced intimal thickening in rabbit carotid arteries after adventitial plasmid/liposome gene transfer; type: in vivo, New Zealand White rabbits; conditions: L-NAME 70 mg/kg/d in drinking water; 7 days after gene transfer
From the text: The model preserved EC integrity and permitted direct extravascular gene transfer without any intravascular manipulation.
Gene Transfer: Intimal thickening was induced in the carotid arteries of thirty-two New Zealand White rabbits by inserting an inert silicone collar around the arteries under a general anaesthesia (Booth et al, Atherosclerosis (1989) 76:257-268). […] No intravascular manipulations were involved in any steps of the studies. […] Plasmids used for the studies were isolated from E. coli cultures (DH5α) using Qiagen Mega columns and purified using three phenol/chloroform extractions and one ethanol precipitation (Ausubel et al, eds. Current Protocols in Molecular Biology. New York, N.Y.: Greene Publishing Associates and John Wiley & Sons (1991) 4.2.3-4.2.4) were adjusted to 1 μg/μl and analysed to be free of any microbiological or endotoxin contamination (Limulus assay, detection limit 0.2 ng). […] Differences in the intima/media thickness ratios between the groups were analysed by ANOVA, followed by modified t-test (*p<0.05). […]
Gene transfer was carried out as described in Example 1.1. […] Animals were sacrificed 7 days after gene transfer and analysed for the intima/media thickness ratio and histology as described above (Ylä-Herttuala et al, Arteriosclerosis (1986) 6: 230-236; Ylä-Herttuala et al (1990) supra). […]

[2] = test system: 205 kD protein corresponding to VEGF receptor; test: Anti-phosphotyrosine immunoprecipitation/immunoblot in HUVEC; type: cell-based, human
Procedure: In some experiments, cells were pretreated for 1 h with 100 μM L-NAME and subsequently treated either with or without. […] The medium was removed and cells were rapidly lysed at 4° C. by addition of 10 mM Tris/HCl (pH 7.6), 5 mM EDTA, 50 mM NaCl, 30 mM sodium pyrophosphate, 50 mM NaF, 0.1 mM Na3VO4, 1 mM PMSF and 1% Triton X-100 (lysis buffer). Lysates were clarified by centrifugation at 15000×g for 10 min, and immunoprecipitations were performed by incubating clarified lysates with PY20 anti-phosphotyrosine mAb for 2 h at […] Immunoprecipitates were collected by incubating lysates for a further 1 hour with protein A-agarose. Immunoprecipitates were washed three times with lysis buffer and proteins were then extracted with 2×SDS-PAGE sample buffer. After SDS-PAGE, immunoprecipitated proteins were transferred to membranes and then immunoblotted with PY20 mAb.

[3] = test system: arachidonic acid release in HUVEC; test: Arachidonic acid release from prelabelled HUVEC; type: cell-based, human
Procedure: (§1) Cell Culture: HUVECs were obtained either from Clonetics and cultured in the manufacturer's own medium supplemented with 2% FBS, or were grown from fresh umbilical cords by collagenase digestion and cultured on 1% gelatin-coated plates in medium 199 supplemented with 20% FCS and endothelial cell growth supplement (Wheeler-Jones et al, Biochem. J. (1996) 315:407-416). For experimental purposes, primary cultures of HUVEC were dispersed by treatment with 0.05% trypsin/0.02% EDTA for 5 min at 37° C. and then replated in either 90 mm, 60 mm or 35 mm plastic dishes, or onto 24-well plates. Cultures were maintained in a humidified atmosphere containing 5% CO2 and […] at 37° C. and used after 6-8 days or when the cells had formed a confluent monolayer. […] The PGI2 content of cell supernatants was quantified by radioimmunoassay of 6-keto-PGF1a, the stable breakdown product of PGI2 as previously described (Wheeler-Jones et al, supra). Arachidonic Acid Release: Arachidonic acid release was determined essentially as described (Domin and Rozengurt, J. Biol. Chem. (1993) 268:8927-8934.). Confluent HUVEC cultures were incubated for 24 h with [5,6,8,9,11,12,14,15-^3H]arachidonic acid (1 mCi/ml, 211 Ci/mmol). […] After treatment, the medium was removed, centrifuged in a microcentrifuge at 16,000×g for 5 min, and the radioactivity in the supernatant was determined by counting in a scintillation counter. Western Blotting Procedures: Treatment of quiescent cultures of cells with factors, and cell lysis were performed as described above and in the Results and Figure Legends. After SDS-PAGE, proteins were transferred to Immobilon membranes (Millipore Inc.). For MAP kinase assays, membranes were blocked using 5% non-fat dried milk in PBS, pH 7.2, and incubated for 3-5 h in PBS/0.05% Tween-20 containing primary antibody (1 mg/ml) as indicated. For immunoblots with antibody to cPLA2, membranes were blocked for 3 h in TBST50 mM Tris/HCl, 150 mM NaCl, 0.02% (v/v) Tween 20 pH 7.4 (TBST) containing 0.2% (w/v) 1-block (Tropix), then incubated with primary antiserum in TBST. Membranes were then washed six times (10 min each wash) in TBST and incubated for 1 hour in TBST containing HRP-conjugated secondary antibody. Immunoreactive bands were visualized by chemiluminescence using HRP-conjugated anti-mouse or anti-rabbit IgG and ECL™ reagent according to the manufacturers instructions. MAP Kinase Assay: Cells were treated with factors as indicated, washed rapidly twice with ice-cold PBS and immediately extracted by the addition of […] boiling 2×SDS-PAGE sample buffer. Cell extracts were collected by scraping, heated to 95° C. for 10 min and run on 12.5% acrylamide SDS-PAGE gels. Following transfer to Immobilon membranes, proteins were immunoblotted with an antibody which specifically recognizes p42 and p44 MAP kinases (Erk-1 and Erk-2) activated by phosphorylation at Tyr204 (Payne e al, EMBO J. (1991) 10:885-892.). cPLA2 Mobility Shift Assay: Confluent quiescent HUVECs in 60 mm dishes were washed twice in serum-free medium 199 (pH 7.4) and subsequently exposed, for the times indicated, to medium containing factors as detailed in the Figure legends. Cell lysates were prepared as previously described (Wheeler-Jones et al, supra). Proteins were separated by SDS-PAGE (10% acrylamide) and after transfer to membranes were immunoblotted with polyclonal anti-serum to cPLA2 (BorschHaubold et al, J. Biol. Chem. (1995) 270: 25885-25892; and Kramer et al, J. Biol. Chem. (1996) 271:27723-27729). Assay of vWF Secretion: vWF secretion was measured by ELISA (Wheeler-Jones et al, supra) in samples of medium obtained from confluent cultures of HUVECs which had been treated with factors, as indicated. Plates were coated with the anti-vWF mAb CLBRAg35, and the lower detection limit of the assay was approximately 1.0 mU/ml. Materials: Recombinant VEGF was obtained either from UBI or from R & D Systems. […]

HUVECs = test: Migration of HUVECs in chemotaxis chambers; type: cell-based, human; conditions: PIGF 5-60 ng/ml
PGI2 synthesis in HUVEC = test: PGI2 assay (radioimmunoassay of 6-keto-PGF1a) in HUVEC; type: cell-based, human
Procedure: as §1

p42/p44 MAP kinases = test: MAP kinase assay (phospho-p42/p44 immunoblot) in HUVEC; type: cell-based, human; conditions: 15 min exposure
Procedure: as §1

cPLA2 = cPLA2 mobility shift assay in HUVEC; type: cell-based, human
Procedure: as §1

vWF secretion by HUVECs = test: vWF secretion by ELISA in HUVEC; type: cell-based, human
Procedure: as §1

Compound: COC(=O)[C@@H](N)CCCNC(=N)N[N+](=O)[O-] [L-NAME]
- effect of L-NAME on VEGF-induced NO production (NO production in HUVEC; 100 μM L-NAME): completely abolished
- nitrite production level after L-NAME (NO production in HUVEC; L-NAME 100 μM pretreatment 1 hour, then 25 ng/ml VEGF 10 minutes): ~17 µM
- effect of L-NAME on the difference in intimal thickening between VEGF- and lacZ-transfected arteries [1]: abolished
- effect of L-NAME on VEGF-induced phosphorylation ([2]; 100 μM L-NAME 1 h pretreatment, 10 ng/ml VEGF 10 min): abolishes the response to VEGF; also recorded: completely abolished

Compound: VEGF
- concentration of maximum arachidonic acid release [3]: 10 to 20 ng/mL
- half-maximum effect on arachidonic acid release [3]: 2.5 to 5 ng/mL
- mean increase in release of labelled arachidonic acid above basal unstimulated level [3]: 1.6 fold
- time at which arachidonic acid release was evident [3]: 10 min
- time of half-maximum arachidonic acid mobilization [3]: 10 min
- time of maximum arachidonic acid release [3]: 30 min
- time for which NO production was sustained (NO production in HUVEC): up to 2 hours
- half-maximal effect on NO production (NO production in HUVEC; HUVEC, nitrite levels): 5 ng/mL
- nitrite production level (NO production in HUVEC; VEGF 2.5 ng/ml, 10 minutes (first of two levels)): ~19 µM
- nitrite production level (NO production in HUVEC; VEGF 25 ng/ml for times up to 2 h): 1.8 to 2 µM
- nitrite production level (NO production in HUVEC; VEGF 25 ng/ml, 10 minutes (second of two levels)): ~2.1 µM
- earliest time effect on NO production seen (NO production in HUVEC; after addition of VEGF): 30 s
- time of maximum NO production (NO production in HUVEC; after addition of VEGF): 5 min
- chemotaxis of HUVECs (HUVECs): concentration-dependent increase in chemotaxis
- time for which PGI2 production was sustained (PGI2 synthesis in HUVEC): up to 2 h
- time up to which PGI2 production continued to increase (PGI2 synthesis in HUVEC): up to 60 min
- PGI2 synthesis at 25 ng/ml (PGI2 synthesis in HUVEC; 25 ng/ml VEGF): small decline
- mean fold increase in 6-keto PGF1a above control unstimulated level (PGI2 synthesis in HUVEC; 60 min, 25 ng/ml VEGF, 60 ng/ml PIGF, 1 U/ml thrombin): 2.0 fold and 2 fold
- concentration at which increase in PGI2 synthesis was detectable (PGI2 synthesis in HUVEC; 60 min incubation): 5 ng/mL
- concentration of maximum PGI2 synthesis (PGI2 synthesis in HUVEC; 60 min incubation): 15 ng/mL
- half-maximal PGI2 synthesis (PGI2 synthesis in HUVEC; 60 min incubation): 10 ng/mL
- concentration of maximum MAP kinase activation (p42/p44 MAP kinases): 10 ng/mL and 5 to 10 ng/mL
- concentration up to which maximum MAP kinase effect was sustained (p42/p44 MAP kinases): up to 50 ng/ml
- cPLA2 mobility shift (in words) (cPLA2): marked increase in the immunoreactivity of the slow-migrating form
- concentration giving noticeable increase in slow-migrating cPLA2 (cPLA2): 2.5 ng/mL
- concentration of maximum increase in slow-migrating cPLA2 (cPLA2): 5 to 10 ng/mL and 5 ng/mL
- time at which cPLA2 shift to slow-migrating form was detectable (cPLA2; VEGF 25 ng/ml): 2 min
- time for which cPLA2 shift was sustained (cPLA2; VEGF 25 ng/ml): up to 60 min
- time of maximum cPLA2 shift (cPLA2; VEGF 25 ng/ml): 15 min
- vWF secretion (in words) (vWF secretion by HUVECs): comparable to, though consistently weaker than, that of thrombin
- vWF level above control cells (vWF secretion by HUVECs; 25 ng/ml VEGF, 3 h): 2.5 fold
- concentration of maximum effect on vWF secretion (vWF secretion by HUVECs; highest concentration tested): 25 ng/mL
- concentration range inducing tyrosine phosphorylation of 205 kDa protein ([2]; HUVEC): 1 to 25 ng/mL
